From patent US9974761B2, “Medications for deposition on biological surfaces” (The Procter & Gamble Company, priority 2014, dated 2018) come the findings set out here.

For this assay, the target named is T1, human TRPM8.
T1 construct: Receptor Activity TRPM8; Receptor Activity TRPM8; other: test compound at 0.001%; relative to WS5 control (30 microMolar); HEK 293 cells; other: test compound at 0.004%; other: test compound at 5.2E−5%; relative to WS5 control
Put plainly: TRPM8 Protocol-FLIPR Assay (intracellular Ca2+). The format is cell-based. Particulars: for TRPM8 Time Course Activity 5 min % of WS5 / TRPM8 Time Course Activity 10 min % of WS5: dose 12.2 nM, vs 30 uM WS-5. How it is done:
To determine whether TRPM8 is activated, the intracellular calcium ion (Ca^2+) level was measured from transfected cells with the TRPM8 receptor sequence (SEQ ID NO: 3). HEK-293 (human embryonic kidney) cells stably transfected with human TRPM8 were grown in 15 ml growth medium (high glucose DMEM (Dulbecco's Modification of Eagle's Medium) supplemented with 10% FBS (fetal bovine serum), 100 ug/ml penicillin/streptomycin, 5 μg/ml blasticindin, and 100 μg/ml zeocin) in a 75 cm^2 flask for 3 days at 37° C. in a mammalian cell culture incubator set at 5% CO2 Cells were detached with addition of 2 ml of trypsin-EDTA buffer (GIBCO® 25200, Invitrogen, Grand Island, N.Y.) for about 2-3 min. Trypsin was inactivated by addition of 8 ml growth medium. Cells were transferred to a 50 ml tube and centrifuged at 850 rpm for 3 minutes to remove medium. After centrifugation, a pellet of cells was formed in the bottom of the tube separating them from the supernatant solution. The supernatant was discarded and the cell pellet was suspended in 1 ml of fresh growth medium to which 5 μl (12.5 μg) of Fluo-4 AM (Molecular Probes, Inc., Eugene, Oreg.) calcium indicator was added and incubated for 30 min with gentle shaking. Fluo-4 AM is a fluorescent dye used for quantifying cellular Ca^2+ concentrations in the 100 nM to 1 microM range. At the end of 30 minutes, 45 ml of assay buffer (1× HBSS (Hank's Balanced Salt Solution), 20 mM HEPES (4-(2-Hydroxyethyl)-1-piperazineethanesulfonic acid)) was added to wash cells and the resulting mixture was then centrifuged at 850 rpm for 3 minutes to remove excess buffer and Fluo-4 AM calcium indicator.
The pelleted cells were re-suspended in 10 ml assay buffer and 90 μl aliquots (˜50,000 cells) per well delivered to a 96-well assay plate containing 10 μl of test compounds (1 mM in assay buffer, […]) or buffer control and incubated at room temperature for 30 minutes. After 30 minutes, a plate was placed into a fluorometric imaging plate reader (FLIPR384 from Molecular Devices, Sunnyvale, Calif.) and basal fluorescence recorded (excitation wave length 488 nm and emission wave length 510 nm). Then 20 μl of […] of TRPM8 agonist WS5 coolant in the assay buffer was added and fluorescence recorded. For determining the direct effect of test compounds on TRPM8, fluorescence was measured immediately after addition of each compound (TABLES 2 and 3). Additional discussion of the FLIPR method can be found in Smart et al., Characterization using FLIPR of human vanilloid VR1 receptor pharmacology, European Journal of Pharmacology 417, 51-58 (2001) and Liu et al., Development and validation of a platelet calcium flux assay using a fluorescent imaging plate reader, Analytical Biochemistry 357, 216-224 (2006).
TRPM8 activation was determined by measuring intracellular calcium ion (Ca^2+) level from transfected cells with the TRPM8 receptor gene, as described in EXAMPLE 1, the results of which are shown in TABLES 4 and 5.

On to `CC(C)[C@@H]1CC[C@@H](C)C[C@H]1C(=O)NCC(NC(=O)[C@@H](C)N)c1ccccc1` (single isomer, unassigned) [Compound 28 fraction 1], for which the EC50 (in general, the midpoint of the concentration-response curve) (3 min) was 1.48 nM. Besides, the “TRPM8 Time Course Activity 5 min % of WS5” value (5 min) amounted to 103.8%. For the same molecule, where the note is “10 min”, the “TRPM8 Time Course Activity 10 min % of WS5” value turned out to be 115.5%.
As for `CC(C)[C@@H]1CC[C@@H](C)C[C@H]1C(=O)NCC(NC(=O)[C@@H](C)N)c1ccccc1` (single isomer, unassigned) [Compound 28 fraction 2], the EC50 (3 min) is 55.5 nM. Moreover, where the note is “5 min”, the concentration giving a half-maximal response (EC50) worked out at 45.7 nM and the “TRPM8 Time Course Activity 5 min % of WS5” value is given as 65.7%. Besides, for the setting “10 min”, the response was half-maximal at 37.4 nM (EC50) and the “TRPM8 Time Course Activity 10 min % of WS5” value is 71.1%.
